{"source": "patent US7750006B2", "about": "“Phthalazinone derivatives” (Kudos Pharmaceuticals Limited, priority 2000, dated 2010)", "data": [{"test_system": "HeLa cells", "test": "Dose Enhancing Factor: cell growth inhibition with bleomycin, SRB assay", "format": "cell-based", "settings": "test compound 25 μM, bleomycin 0.5 μg/ml", "protocol": "The Dose Enhancing Factor (DEF) is a ratio of the enhancement of cell growth inhibition elicited by the test compound in the presence of bleomycin compared to bleomycin alone. […] Bleomycin was used at a concentration of 0.5 μg/ml. The DEF was calculated from the formula:\n[formula] where GrowthTC is cell growth in presence of the test compound; GrowthControl is cell growth of control cells; Growthbleo is cell growth in presence of bleomycin; and Growth(bleo+TC) is cell growth in presence of bleomycin and the test compound.\n2,000 HeLa cells were seeded into each well of a flat-bottomed 96-well microtiter plate in a volume of 100 μl and incubated for 6 hours at 37° C. […] Cells were allowed to grow for a further 1 hour before the addition of bleomycin to either untreated cells or test compound treated cells. Cells untreated with either bleomycin or test compound were used as a control. Cells treated with test compound alone were used to assess the growth inhibition by the test compound.\nCells were left for a further 16 hours before replacing the media and allowing the cells to grow for a further 72 hours at 37° C. The media was then removed and the cells fixed with 100 μl of ice cold 10% (w/v) trichloroacetic acid. The plates were incubated at 4° C. for 20 minutes and then washed four times with water. Each well of cells was then stained with 100 μl of 0.4% (w/v) SRB in 1% acetic acid for 20 minutes before washing four times with 1% acetic acid. Plates were then dried for 2 hours at room temperature. The dye from the stained cells was solubilized by the addition of 100 μl of 10 mM Tris Base into each well.", "values": [{"smiles": "O=c1[nH]nc(Cc2cccc(C(F)(F)F)c2)c2ccccc12", "note": "[Compound 191]", "DEF (Dose Enhancing Factor)": 1.5}, {"smiles": "O=C(Nc1ccc(Cc2n[nH]c(=O)c3ccccc23)cc1)c1ccc(F)cc1", "note": "[Compound 227]", "DEF (Dose Enhancing Factor)": 2.6}, {"smiles": "O=c1[nH]nc(Cc2ccccc2F)c2ccccc12", "note": "[Compound 141]", "DEF (Dose Enhancing Factor)": 1.6}, {"smiles": "O=c1[nH]nc(Cc2cccc3ccccc23)c2ccccc12", "note": "[Compound 131]", "DEF (Dose Enhancing Factor)": 1.3}, {"smiles": "O=c1[nH]nc(Cc2ccccc2)c2ccccc12", "note": "[Compound 145]", "DEF (Dose Enhancing Factor)": 1.8}, {"smiles": "O=C(Nc1cccc(Cc2n[nH]c(=O)c3ccccc23)c1)c1ccccc1", "note": "[Compound 171]", "DEF (Dose Enhancing Factor)": 1.8}, {"smiles": "O=c1[nH]nc(CSc2ccccn2)c2ccccc12", "note": "[Compound 91]", "DEF (Dose Enhancing Factor)": 1.4}, {"smiles": "O=C(O)COCC(=O)Nc1cc(Cc2n[nH]c(=O)c3ccccc23)ccc1N1CCOCC1", "note": "[Compound 206]", "DEF (Dose Enhancing Factor)": 1.2}, {"smiles": "O=c1[nH]nc(Cc2ccc(Cl)cc2)c2ccccc12", "note": "[Compound 126]", "DEF (Dose Enhancing Factor)": 1.9}, {"smiles": "Nc1cccc(Cc2n[nH]c(=O)c3ccccc23)c1", "note": "[Compound 160]", "DEF (Dose Enhancing Factor)": 1.5}, {"smiles": "Nc1cc(Cc2n[nH]c(=O)c3ccccc23)ccc1N1CCSCC1", "note": "[Compound 198]", "DEF (Dose Enhancing Factor)": 2.3}, {"smiles": "O=c1[nH]nc(Cc2ccc(N3CCCC3)c([N+](=O)[O-])c2)c2ccccc12", "note": "[Compound 204]", "DEF (Dose Enhancing Factor)": 1.6}, {"smiles": "O=c1[nH]nc(Cc2ccc(I)cc2)c2ccccc12", "note": "[Compound 151]", "DEF (Dose Enhancing Factor)": 1.9}, {"smiles": "O=C(Nc1cccc(Cc2n[nH]c(=O)c3ccccc23)c1)c1cccs1", "note": "[Compound 169]", "DEF (Dose Enhancing Factor)": 1.5}, {"smiles": "O=C(Nc1cccc(Cc2n[nH]c(=O)c3ccccc23)c1)c1ccc(F)cc1", "note": "[Compound 170]", "DEF (Dose Enhancing Factor)": 2.6}, {"smiles": "O=c1[nH]nc(Cc2ccc3c(c2)OCO3)c2ccccc12", "note": "[Compound 180]", "DEF (Dose Enhancing Factor)": 1.2}, {"smiles": "O=c1[nH]nc(Cc2cccc(OCc3ccccc3)c2)c2ccccc12", "note": "[Compound 194]", "DEF (Dose Enhancing Factor)": 1.6}, {"smiles": "O=c1[nH]nc(Cc2ccc(Br)cc2)c2ccccc12", "note": "[Compound 129]", "DEF (Dose Enhancing Factor)": 1.3}, {"smiles": "CC(=O)Oc1cccc(Cc2n[nH]c(=O)c3ccccc23)c1", "note": "[Compound 179]", "DEF (Dose Enhancing Factor)": 1.4}, {"smiles": "CC(=O)Oc1ccc(Cc2n[nH]c(=O)c3ccccc23)cc1", "note": "[Compound 213]", "DEF (Dose Enhancing Factor)": 1.3}, {"smiles": "O=c1[nH]nc(Cc2cccc(F)c2)c2ccccc12", "note": "[Compound 192]", "DEF (Dose Enhancing Factor)": 1.4}, {"smiles": "O=C(Nc1ccc(F)cc1)Nc1cccc(Cc2n[nH]c(=O)c3ccccc23)c1", "note": "[Compound 216]", "DEF (Dose Enhancing Factor)": 1.3}, {"smiles": "O=c1[nH]nc(Cc2cccc(Oc3ccccc3)c2)c2ccccc12", "note": "[Compound 193]", "DEF (Dose Enhancing Factor)": 2.2}, {"smiles": "O=c1[nH]nc(Cc2cccnc2)c2ccccc12", "note": "[Compound 178]", "DEF (Dose Enhancing Factor)": 1.9}, {"smiles": "Cc1ccccc1Cc1n[nH]c(=O)c2ccccc12", "note": "[Compound 163]", "DEF (Dose Enhancing Factor)": 1.3}, {"smiles": "Cc1ccc(Cc2n[nH]c(=O)c3ccccc23)cc1", "note": "[Compound 139]", "DEF (Dose Enhancing Factor)": 1.4}, {"smiles": "COc1cc(Cc2n[nH]c(=O)c3ccccc23)ccc1OCc1ccccc1", "note": "[Compound 222]", "DEF (Dose Enhancing Factor)": 1.2}, {"smiles": "O=c1[nH]nc(Cc2cccc(O)c2)c2ccccc12", "note": "[Compound 165]", "DEF (Dose Enhancing Factor)": 1.3}, {"smiles": "Cn1ccnc1SCc1n[nH]c(=O)c2ccccc12", "note": "[Compound 92]", "DEF (Dose Enhancing Factor)": 1.5}, {"smiles": "O=C(Nc1ccccc1)Nc1cccc(Cc2n[nH]c(=O)c3ccccc23)c1", "note": "[Compound 215]", "DEF (Dose Enhancing Factor)": 1.4}, {"smiles": "O=c1[nH]nc(Cc2ccc(O)cc2)c2ccccc12", "note": "[Compound 164]", "DEF (Dose Enhancing Factor)": 1.3}, {"smiles": "COc1ccc(Cc2n[nH]c(=O)c3ccccc23)cc1", "note": "[Compound 138]", "DEF (Dose Enhancing Factor)": 1.3}, {"smiles": "O=c1[nH]nc(Cc2cccc(Cl)c2)c2ccccc12", "note": "[Compound 186]", "DEF (Dose Enhancing Factor)": 1.6}, {"smiles": "COC(=O)CSCc1n[nH]c(=O)c2ccccc12", "note": "[Compound 93]", "DEF (Dose Enhancing Factor)": 1.3}, {"smiles": "O=c1[nH]nc(Cc2ccncc2)c2ccccc12", "note": "[Compound 177]", "DEF (Dose Enhancing Factor)": 1.2}, {"smiles": "CC(=O)Nc1ccc(Cc2n[nH]c(=O)c3ccccc23)cc1", "note": "[Compound 166]", "DEF (Dose Enhancing Factor)": 1.4}, {"smiles": "CC(=O)Nc1cccc(Cc2n[nH]c(=O)c3ccccc23)c1", "note": "[Compound 172]", "DEF (Dose Enhancing Factor)": 1.4}, {"smiles": "O=c1[nH]nc(Cc2cccc(Br)c2)c2ccccc12", "note": "[Compound 211]", "DEF (Dose Enhancing Factor)": 1.4}, {"smiles": "O=c1[nH]nc(Cc2ccccc2F)c2ccccc12", "note": "[Compound 248]", "DEF (Dose Enhancing Factor)": 1.2}, {"smiles": "O=c1[nH]nc(Cc2ccc(F)cc2)c2ccccc12", "note": "[Compound 132]", "DEF (Dose Enhancing Factor)": 2.3}, {"smiles": "O=C(Oc1cccc(Cc2n[nH]c(=O)c3ccccc23)c1)c1ccc(F)cc1", "note": "[Compound 212]", "DEF (Dose Enhancing Factor)": 2.3}, {"smiles": "O=c1[nH]nc(CSc2ccc(Cl)cc2)c2ccccc12", "note": "[Compound 90]", "DEF (Dose Enhancing Factor)": 1.8}]}]}
